Laboratory results as given in US5973188A (priority 1993, dated 1999).

The compounds below were run on ADP-induced aggregation of platelets in human PRP (assay: animal or person). Conditions: Platelet, po, read-out: ID50 (dose administered orally that inhibits by 50% the ADP-induced ex vivo aggregation of platelets in human PRP).
CCOC(=O)N=C(N)c1ccc(C(=O)N[C@@H](Cc2ccc(OC(=O)OCC)cc2)C(=O)N2CCC(OCC(=O)OC(C)C)CC2)cc1 (mixture of isomers) [Example 49, Isopropyl (E/Z)-(S)-1-[2-[4-(amino-ethoxycarbonylimino-methyl)-benzoylamino]-3-(4-ethoxycarbonyloxy-phenyl)-propionyl]-piperidin-4-yloxyacetate] was tested, and the ED50 was 1.2 mg/kg.
For CCOC(=O)N=C(N)c1ccc(C(=O)N[C@@H](Cc2ccc(OC(=O)c3ccccc3N)cc2)C(=O)N2CCC(OCC(=O)OC(C)C)CC2)cc1 (mixture of isomers) [Example 50, (E/Z)-(S)-4-[2-[4-(amino-ethoxycarbonylimino-methyl)-benzoylamino]-3-(4-isopropoxy-carbonylmethoxy-piperidin-1-yl)-3-oxo-propyl]-phenyl 2-amino-benzoate], the ED50 was 1.3 mg/kg.
For CCOC(=O)N=C(N)c1ccc(C(=O)N[C@@H](Cc2ccc(OC(=O)c3ccco3)cc2)C(=O)N2CCC(OCC(=O)OC(C)C)CC2)cc1 (mixture of isomers) [Example 51, (E/Z)-(S)-4-[2-[4-(amino-ethoxycarbonylimino-methyl)-benzoylamino]-3-(4-isopropoxy-carbonylmethoxy-piperidin-1-yl)-3-oxo-propyl]-phenyl furan-2-carboxylate], the ED50 was 3.9 mg/kg.
CCOC(=O)N=C(N)c1ccc(C(=O)N[C@@H](Cc2ccc(OC(=O)c3ccccc3OC(C)=O)cc2)C(=O)N2CCC(OCC(=O)OC(C)C)CC2)cc1 (mixture of isomers) [Example 53, (E/Z)-(S)-4-[2-[4-(amino-ethoxycarbonylimino-methyl)-benzoylamino]-3-(4-isopropoxy-carbonylmethoxy-piperidin-1-yl)-3-oxo-propyl]-phenyl 2-acetoxy-benzoate] was tested, and the ED50 was 1.5 mg/kg.
CCOC(=O)N=C(N)c1ccc(C(=O)N[C@@H](C)C(=O)N2CCC(OCC(=O)OC(C)C)CC2)cc1 (mixture of isomers) [Example 60, isopropyl (E/Z)-(S)-1-[2-[4-(amino-ethoxycarbonylimino-methyl)-benzoylamino]-propionyl]-piperidin-4-yloxyacetate] was tested, and the ED50 was 0.3 mg/kg.
In the case of CC(C)OC(=O)COC1CCN(C(=O)[C@H](C)NC(=O)c2ccc(C(N)=NO)cc2)CC1 (mixture of isomers) [Example 76, isopropyl (E/Z)-(S)-1-[2-[4-(amino-hydroxyimino-methyl)-benzoylamino]-propionyl]-piperidin-4-yloxyacetate], the ED50 is reported as 0.2 mg/kg.
In the case of CCOC(=O)COc1ccc(C(=O)C(CSC)NC(=O)c2ccc(C(=N)NC(=O)OCC)cc2)cc1 (racemic) [Example 27, ethyl (R,S)-4-[2-[4-(ethoxycarbonylamino-imino-methyl)-benzoylamino]-3-methylsulphanyl-propionyl]-phenoxyacetate], the ED50 is reported as 4.3 mg/kg.
Compound CCOC(=O)COc1ccc(C(=O)C(C)NC(=O)c2ccc(C(N)=NO)cc2)cc1 (racemic) [Example 32, ethyl (Z)-(R,S)-4-[2-[4-[amino-hydroxyimino-methyl]-benzoylamino]-propionyl]-phenoxyacetate] has an ED50 of 0.2 mg/kg.
CCOC(=O)COc1ccc(C(=O)C(C)NC(=O)c2ccc(C(N)=NOC(=O)OCC)cc2)cc1 (racemic) [Example 35, ethyl (Z)-(R,S)-4-[2-[4-[amino-ethoxycarbonyloximino-methyl]-benzoylamino]-propionyl]-phenoxyacetate] showed an ED50 of 0.5 mg/kg.
In the case of CC(C)COC(=O)NC(=N)c1ccc(C(=O)CC(C)C(=O)N2CCC(OCC(=O)OC(C)C)CC2)cc1 (racemic) [Example 85, isopropyl (RS)-[1-[4-[4-(Isobutoxycarbonylamino-imino-methyl)-phenyl]-2-methyl-4-oxo-butyryl]-piperidin-4-yloxy]-acetate], the ED50 is reported as 0.4 mg/kg.
Work on C[C@H](NC(=O)c1ccc(C(=N)N)cc1)C(=O)c1ccc(OCC(=O)OCC2CC2)cc1 [Example 3, cyclopropylmethyl (S)-4-[2-[4-(amino-imino-methyl)-benzoylamino]-propionyl]-phenoxyacetate] yielded an ED50 of 2.7 mg/kg.
C[C@H](NC(=O)c1ccc(C(=N)N)cc1)C(=O)c1ccc(OCC(=O)OC2CCCCC2)cc1 [Example 4, cyclohexyl (S)-4-[2-[4-(amino-imino-methyl)-benzoylamino]-propionyl]-phenoxyacetate] showed an ED50 of 2.1 mg/kg.
CCOC(=O)COc1ccc(C(=O)[C@H](CO)NC(=O)c2ccc(C(=N)N)cc2)cc1 [Example 9, ethyl (S)-4-[2-[4-(amino-imino-methyl)-benzoylamino]-3-hydroxy-propionyl]-phenoxyacetate] showed an ED50 of 1.4 mg/kg.
Compound COc1ccc(C[C@H](NC(=O)c2ccc(C(=N)N)cc2)C(=O)c2ccc(OCC(=O)O)cc2)cc1 [Example 11, (S)-4-[2-[4-(amino-imino-methyl)-benzoylamino]-3-(4-methoxy-phenyl)-propionyl]-phenoxyacetic acid] has an ED50 of 3.1 mg/kg.
In the case of CCOC(=O)COc1ccc(C(=O)[C@@H](NC(=O)c2ccc(C(=N)N)cc2)[C@@H](C)O)cc1 [Example 20, ethyl (2S,3R)-4-[2-[4-(amino-imino-methyl)-benzoylamino]-3-hydroxy-butyryl]-phenoxyacetate], the ED50 is reported as 2.4 mg/kg.
In the case of COCCOC(=O)COc1ccc(C(=O)[C@H](C)NC(=O)c2ccc(C(=N)N)cc2)cc1 [Example 22, 2-methoxy-ethyl (S)-4-[2-[4-(amino-imino-methyl)-benzoylamino]-propionyl]-phenoxyacetate], the ED50 is reported as 1.8 mg/kg.
CCOC(=O)COc1ccc(C(=O)[C@H](COC(C)=O)NC(=O)c2ccc(C(=N)N)cc2)cc1 [Example 24, ethyl (S)-4-[2-[4-(amino-imino-methyl)-benzoylamino]-3-acetoxy-propionyl]-phenoxy-acetate] gave an ED50 of 2.3 mg/kg.
For CCOC(=O)COc1ccc(C(=O)[C@H](C)NC(=O)c2ccc(C(=N)NC(=O)OCCOC)cc2)cc1 [Example 28, ethyl (S)-4-[2-[4-[imino-2-(methoxy-ethoxycarbonylamino)-methyl]-benzoylamino]-propionyl]-phenoxyacetate], the ED50 was 0.3 mg/kg.
CCOC(=O)COc1ccc(C(=O)[C@H](C)NC(=O)COC2CCNCC2)cc1 [Example 29, ethyl (S)-4-(2-piperidin-4-yloxyacetylamino-propionyl)-phenoxyacetate] gave an ED50 of 1 mg/kg.
CCOC(=O)NC(=N)c1ccc(C(=O)N[C@@H](C)C(=O)c2ccc(OCC(=O)OC3CCOCC3)cc2)cc1 [Example 33, tetrahydropyran-4-yl (S)-4-[2-[4-(ethoxycarbonylamino-imino-methyl)-benzoylamino]-propionyl]-phenoxyacetate] gave an ED50 of 0.6 mg/kg.
In the case of CCOC(=O)COc1ccc(C(=O)[C@H](C)NC(=O)c2ccc(C(=N)NC(=O)Oc3ccccc3)cc2)cc1 [Example 36, ethyl (S)-4-[2-[4-(imino-phenoxycarbonylamino-methyl)-benzoylamino]-propionyl]-phenoxyacetate], the ED50 is reported as 0.5 mg/kg.
CCOC(=O)COc1ccc(C(=O)[C@H](C)NC(=O)c2ccc(C(=N)NC(=O)OC3CCOCC3)cc2)cc1 [Example 38, ethyl (S)-4-[2-[4-[imino-(tetrahydro-pyran-4-yloxy-carbonylamino)-methyl]-benzoylamino]-propionyl]-phenoxyacetate] gave an ED50 of 2.9 mg/kg.
In the case of COCCOC(=O)COc1ccc(C(=O)[C@H](C)NC(=O)c2ccc(C(=N)NC(=O)OCCOC)cc2)cc1 [Example 40, 2-methoxy-ethyl (S)-^4-[2-[4-[imino-(2-methoxy-ethoxy-carbonylamino)-methyl]-benzoylamino]-propionyl]-phenoxyacetate], the ED50 is reported as 0.6 mg/kg.
CCOC(=O)COc1ccc(C(=O)[C@H](C)NC(=O)c2ccc(/C(N)=N/O)cc2)cc1 [Example 41, ethyl (Z)-(S)-4-[2-[4-(amino-hydroxyimino-methyl)-benzoylamino]-propionyl]-phenoxyacetate] showed an ED50 of 0.2 mg/kg.
For C[C@H](NC(=O)c1ccc(C(=N)N)cn1)C(=O)N1CCC(OCC(=O)OC2CCOCC2)CC1 [Example 63, tetrahydropyran-4-yl (S)-1-[2-(5-amino-imino-methyl-pyridin-2-ylcarbonylamino)-propionyl]-piperidin-4-yloxy-acetate], the ED50 was 1.1 mg/kg.
COc1ccc(C[C@H](NC(=O)c2ccc(CN)cn2)C(=O)N2CCC(OCC(=O)OC(C)C)CC2)cc1 [Example 72, isopropyl (S)-1-[2-(5-aminomethyl-pyridin-2-ylcarbonylamino)-3-(4-methoxy-phenyl)-propionyl]-piperidin-4-yloxyacetate] gave an ED50 of 2.7 mg/kg.
Compound CCOC(=O)NC(=N)c1ccc(C(=O)CCC(=O)N2CCC(OCC(=O)OC(C)C)CC2)cc1 [Example 80, isopropyl [1-[4-[4-(ethoxycarbonylamino-imino-methyl)-phenyl]-4-oxo-butyryl]-piperidin-4-yloxy]-acetate] has an ED50 of 0.7 mg/kg.
